Target: prolyl 4-hydroxylase beta polypeptide (P4HB) (Homo sapiens, UniProt P07237)
Experiment: surface plasmon resonance (Biacore […])
Type: binding

Chain of prolyl 4-hydroxylase beta polypeptide (P4HB) (P07237 18-508): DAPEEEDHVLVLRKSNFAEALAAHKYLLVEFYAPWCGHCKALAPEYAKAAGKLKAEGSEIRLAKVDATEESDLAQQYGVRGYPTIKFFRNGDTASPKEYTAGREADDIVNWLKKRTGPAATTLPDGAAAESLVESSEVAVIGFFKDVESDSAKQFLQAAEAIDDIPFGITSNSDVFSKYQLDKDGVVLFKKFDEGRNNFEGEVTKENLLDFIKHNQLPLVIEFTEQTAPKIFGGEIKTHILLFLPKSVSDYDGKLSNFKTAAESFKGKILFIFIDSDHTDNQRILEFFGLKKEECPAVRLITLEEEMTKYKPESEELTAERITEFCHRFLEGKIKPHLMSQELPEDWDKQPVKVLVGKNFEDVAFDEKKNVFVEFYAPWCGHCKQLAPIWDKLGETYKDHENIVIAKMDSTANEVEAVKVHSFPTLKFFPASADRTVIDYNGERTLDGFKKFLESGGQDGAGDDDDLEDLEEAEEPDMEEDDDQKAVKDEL

## OC[C@H]1O[C@@H](OCCc2ccc(O)cc2)[C@H](O)[C@@H](O)[C@@H]1O [SAL, Salidroside]
  Kd: 13.8 µM
